From patent US20090137664A1, “SAURURUS CERNUUS COMPOUNDS THAT INHIBIT CELLULAR RESPONSES TO HYPOXIA” (priority 2003, published 2009)

Tests used:
[1] = tested on: SN12C; assay: NCI in vitro cell line screen (SRB), Renal Cancer SN12C; type: cell-based
Protocol: (§1) For exemplary purposes, an embodiment of the present invention was tested for activity with respect to certain cancer cell lines. The following Tables show results from in vitro 60-cell line antitumor testing from the US National Cancer Institute Developmental Therapeutics Program (NCI-DTP) on compound 2. The testing was in connection with the NCI's In Vitro Cell Line Screening Project (IVCLSP). Detailed information regarding the experiments and their interpretation is available from the NCI.

[2] = tested on: SF-268; assay: NCI in vitro cell line screen (SRB), CNS Cancer SF-268; type: cell-based
Protocol: as §1

[3] = tested on: SR; assay: NCI in vitro cell line screen (SRB), Leukemia SR; type: cell-based
Protocol: as §1

[4] = tested on: HIF-1α protein; assay: Western blot, hypoxic induction of nuclear HIF-1α protein in T47D cells; type: cell-based, human; conditions: T47D nuclear extract, hypoxia 4 hr
Protocol: Due to the low abundance of HIF-1α protein in whole cell extract, nuclear extract is prepared and the level of HIF-1α protein in the nuclear extract determined by Western blot. Briefly, exponentially grown T47D cells are exposed to compound 2 for 30 minutes. […] Nuclear extracts are prepared from control and treated cells, separated on a SDS/PAGE gel, the separated proteins transferred to a nitrocellulose membrane, incubated with the primary antibodies (anti-HIF-1α, and anti-HIF-1β monoclonal antibodies, Novus Biologicals), secondary antibody biotinylated anti-mouse immunoglobulin G and Vectastain ABC reagent (Vector Laboratories), and developed using ECL reagents (Amersham Biosciences). […] No change in HIF-1β protein level is observed across the treatments. It is reasonable to conclude that the selectivity of compound 2 towards hypoxia-activated HIF-1 is caused by selective blockade of the hypoxic induction of HIF-1 protein.
To investigate the mechanism of action, the effects of these compounds on hypoxic stabilization of HIF-1α protein are examined in T47D cells using Western blot.

[5] = tested on: SK-MEL-2; assay: NCI in vitro cell line screen (SRB), Melanoma SK-MEL-2; type: cell-based
Protocol: as §1

[6] = tested on: NCI-H460; assay: NCI in vitro cell line screen (SRB), Non-Small Cell Lung Cancer NCI-H460; type: cell-based
Protocol: as §1

[7] = tested on: A549/ATCC; assay: NCI in vitro cell line screen (SRB), Non-Small Cell Lung Cancer A549/ATCC; type: cell-based
Protocol: as §1

[8] = tested on: MOLT-4; assay: NCI in vitro cell line screen (SRB), Leukemia MOLT-4; type: cell-based
Protocol: as §1

[9] = tested on: TK-10; assay: NCI in vitro cell line screen (SRB), Renal Cancer TK-10; type: cell-based
Protocol: as §1

[10] = Homo sapiens, read-out: LC50 (the source's name)

COc1ccc([C@@H](O)[C@@H](C)Oc2ccc([C@H]3O[C@H](c4ccc(O[C@H](C)[C@H](O)c5ccc6c(c5)OCO6)c(OC)c4)[C@H](C)[C@H]3C)cc2OC)cc1OC [Compound 2, manassantin B]
TGI [1]: >1.00E−4 Molar
GI50 ([1]; Homo sapiens): 35.2 µM
CC50 [1, 10]: > 100 µM
Mean Optical Densities ([1]; Log10 Concentration −4.0 Molar): 0.594
Percent Growth ([1]; Log10 Concentration −4.0 Molar): 42%
Mean Optical Densities ([1]; Log10 Concentration −5.0 Molar): 0.669
Percent Growth ([1]; Log10 Concentration −5.0 Molar): 59%
Mean Optical Densities ([1]; Log10 Concentration −6.0 Molar): 0.723
Percent Growth ([1]; Log10 Concentration −6.0 Molar): 72%
Mean Optical Densities ([1]; Log10 Concentration −7.0 Molar): 0.775
Percent Growth ([1]; Log10 Concentration −7.0 Molar): 84%
Mean Optical Densities ([1]; Log10 Concentration −8.0 Molar): 0.770
Percent Growth ([1]; Log10 Concentration −8.0 Molar): 82%
TGI [2]: >1.00E−4 Molar
GI50 ([2]; Homo sapiens): 4.96 µM
CC50 [2, 10]: > 100 µM
Mean Optical Densities ([2]; Log10 Concentration −4.0 Molar): 0.685
Percent Growth ([2]; Log10 Concentration −4.0 Molar): 27%
Mean Optical Densities ([2]; Log10 Concentration −5.0 Molar): 0.811
Percent Growth ([2]; Log10 Concentration −5.0 Molar): 40%
Mean Optical Densities ([2]; Log10 Concentration −6.0 Molar): 1.135
Percent Growth ([2]; Log10 Concentration −6.0 Molar): 73%
Mean Optical Densities ([2]; Log10 Concentration −7.0 Molar): 1.238
Percent Growth ([2]; Log10 Concentration −7.0 Molar): 83%
Mean Optical Densities ([2]; Log10 Concentration −8.0 Molar): 1.213
Percent Growth ([2]; Log10 Concentration −8.0 Molar): 81%
TGI [3]: >1.00E−4 Molar
CC50 [3, 10]: > 100 µM
Mean Optical Densities ([3]; Log10 Concentration −4.0 Molar): 0.429
Percent Growth ([3]; Log10 Concentration −4.0 Molar): 22%
Mean Optical Densities ([3]; Log10 Concentration −5.0 Molar): 0.561
Percent Growth ([3]; Log10 Concentration −5.0 Molar): 39%
Mean Optical Densities ([3]; Log10 Concentration −6.0 Molar): 0.685
Percent Growth ([3]; Log10 Concentration −6.0 Molar): 54%
Mean Optical Densities ([3]; Log10 Concentration −7.0 Molar): 0.637
Percent Growth ([3]; Log10 Concentration −7.0 Molar): 48%
Mean Optical Densities ([3]; Log10 Concentration −8.0 Molar): 0.616
Percent Growth ([3]; Log10 Concentration −8.0 Molar): 46%
hypoxic induction of HIF-1α protein [4]: specifically inhibits
TGI [5]: >1.00E−4 Molar
GI50 ([5]; Homo sapiens): > 100 µM
CC50 [5, 10]: > 100 µM
Mean Optical Densities ([5]; Log10 Concentration −4.0 Molar): 0.764
Percent Growth ([5]; Log10 Concentration −4.0 Molar): 54%
Mean Optical Densities ([5]; Log10 Concentration −5.0 Molar): 0.928
Percent Growth ([5]; Log10 Concentration −5.0 Molar): 78%
Mean Optical Densities ([5]; Log10 Concentration −6.0 Molar): 1.066
Percent Growth ([5]; Log10 Concentration −6.0 Molar): 98%
Mean Optical Densities ([5]; Log10 Concentration −7.0 Molar): 0.900
Percent Growth ([5]; Log10 Concentration −7.0 Molar): 74%
Mean Optical Densities ([5]; Log10 Concentration −8.0 Molar): 1.020
Percent Growth ([5]; Log10 Concentration −8.0 Molar): 92%
TGI [6]: >1.00E−4 Molar
GI50 ([6]; Homo sapiens): 2.12 µM
LC50 (concentration killing 50% of starting cells) ([6]; Homo sapiens): > 100 µM
Mean Optical Densities ([6]; Log10 Concentration −4.0 Molar): 0.285
Percent Growth ([6]; Log10 Concentration −4.0 Molar): 11%
Mean Optical Densities ([6]; Log10 Concentration −5.0 Molar): 0.492
Percent Growth ([6]; Log10 Concentration −5.0 Molar): 28%
Mean Optical Densities ([6]; Log10 Concentration −6.0 Molar): 0.895
Percent Growth ([6]; Log10 Concentration −6.0 Molar): 61%
Mean Optical Densities ([6]; Log10 Concentration −7.0 Molar): 1.030
Percent Growth ([6]; Log10 Concentration −7.0 Molar): 72%
Mean Optical Densities ([6]; Log10 Concentration −8.0 Molar): 1.011
Percent Growth ([6]; Log10 Concentration −8.0 Molar): 70%
TGI [7]: >1.00E−4 Molar
GI50 ([7]; Homo sapiens): 6.76 µM
LC50 (concentration giving 50% net cell kill) ([7]; Homo sapiens): > 100 µM
Mean Optical Densities ([7]; Log10 Concentration −4.0 Molar): 0.691
Percent Growth ([7]; Log10 Concentration −4.0 Molar): 30%
Mean Optical Densities ([7]; Log10 Concentration −5.0 Molar): 0.849
Percent Growth ([7]; Log10 Concentration −5.0 Molar): 45%
Mean Optical Densities ([7]; Log10 Concentration −6.0 Molar): 1.200
Percent Growth ([7]; Log10 Concentration −6.0 Molar): 77%
Mean Optical Densities ([7]; Log10 Concentration −7.0 Molar): 1.242
Percent Growth ([7]; Log10 Concentration −7.0 Molar): 80%
Mean Optical Densities ([7]; Log10 Concentration −8.0 Molar): 1.288
Percent Growth ([7]; Log10 Concentration −8.0 Molar): 85%
TGI [8]: >1.00E−4 Molar
GI50 ([8]; Homo sapiens): 44.7 µM
LC50 (concentration killing 50% of cells) ([8]; Homo sapiens): > 100 µM
Mean Optical Densities ([8]; Log10 Concentration −4.0 Molar): 0.416
Percent Growth ([8]; Log10 Concentration −4.0 Molar): 47%
Mean Optical Densities ([8]; Log10 Concentration −5.0 Molar): 0.462
Percent Growth ([8]; Log10 Concentration −5.0 Molar): 55%
Mean Optical Densities ([8]; Log10 Concentration −6.0 Molar): 0.685
Percent Growth ([8]; Log10 Concentration −6.0 Molar): 90%
Mean Optical Densities ([8]; Log10 Concentration −7.0 Molar): 0.646
Percent Growth ([8]; Log10 Concentration −7.0 Molar): 84%
Mean Optical Densities ([8]; Log10 Concentration −8.0 Molar): 0.646
Percent Growth ([8]; Log10 Concentration −8.0 Molar): 84%
TGI [9]: >1.00E−4 Molar
GI50 ([9]; Homo sapiens): 4.15 µM
CC50 [9, 10]: > 100 µM
Mean Optical Densities ([9]; Log10 Concentration −4.0 Molar): 1.117
Percent Growth ([9]; Log10 Concentration −4.0 Molar): 16%
Mean Optical Densities ([9]; Log10 Concentration −5.0 Molar): 1.163
Percent Growth ([9]; Log10 Concentration −5.0 Molar): 22%
Mean Optical Densities ([9]; Log10 Concentration −6.0 Molar): 1.674
Percent Growth ([9]; Log10 Concentration −6.0 Molar): 95%
Mean Optical Densities ([9]; Log10 Concentration −7.0 Molar): 1.684
Percent Growth ([9]; Log10 Concentration −7.0 Molar): 97%
Mean Optical Densities ([9]; Log10 Concentration −8.0 Molar): 1.707
Percent Growth ([9]; Log10 Concentration −8.0 Molar): 100%
